# Reference: US8871227B2, “Process and formulation containing epothilones and analogs thereof” (Bristol-Myers Squibb Company, priority 2003, dated 2014)
# What was measured:
# Type in all cases: physicochemical
# [1] = Stability of aqueous solution: time for 5% drug loss (t95); conditions: 25°
# Experimental: The compounds represented by formulae I and II present challenges from the viewpoint of pharmaceutical compounding for administration to patients for a number of reasons. […] Of particular concern with the present invention, compounds of formulae I and II can degrade when exposed to low pH, e.g., certain compounds of formula I presumably are susceptible to acids catalyzed hydrolysis. For example, the time for 5% drug loss (t95) at 25° for an aqueous solution of compound II is approximately 2 h at pH 7, but less than 0.2 h at pH 2.5.
# pH of maximum stability = assay: pH of maximum stability
# Excerpt: The term, “pH of maximum stability,” or “maximum stability pH” means the pH at which a compound (or mixture of compounds) is least likely to degrade, or at which the compound (or mixtures of compounds) will degrade most slowly. Each compound or mixture of compounds will have a pH of maximum stability. However, the pH of maximum stability also may encompass a range of pH's. […] In this case, the pH of maximum stability is 7.1±1.
# For example, in the embodiment involving use of the epothilone analog of formula II, the pH of maximum stability is about 7.0. A preferred dose of this epothilone analog when diluted in the infusion fluid is approximately in the range of about 0.05 to about 1.0 mg/mL, more preferably in the range of about 0.1 to about 0.8 mg/mL, and most preferably in the range of about 0.2 to about 0.6 mg/mL. The inventors herein have determined that for this epothilone analog and preferred dose, an advantageous buffer is sodium lactate, and a preferred concentration of this buffer in the formulation for administration is in the range of about 3 to about 30 mg/mL, more preferably in the range of about 10 to about 20 mg/mL, even more preferably at a concentration of about 15 mg/mL. […]
# [2] = Infusion stability: loss of potency over six hour hold time after dilution in infusion fluid; conditions: for loss of potency (degradation of active compound) / loss of potency (degradation in active compound): 0.2 mg/mL; for loss of potency (degradation of active compound): with buffer and base; for loss of potency (degradation in active compound): without buffer and base
# Experimental: To illustrate the surprising advantages of the invention, a formulation including the compound of formula II was diluted in a 0.9% Sodium Chloride Injection infusion fluid to a concentration of 0.2 mg/mL, without buffer and base. […] As a further illustration, a formulation including the compound of formula II was diluted in a 5% dextrose injection fluid to a concentration of 0.2 mg/mL, without buffer and base.
# [3] = Degradation during dissolution and lyophilization; conditions: tertiary butanol/water 1:1, lyophilized at −30° C. about 100 hours, dried at 25° C. about 35 hours, light protected
# Experimental: [1S-[1R*,3R*(E),7R*,10S*,11R*,12R*,16S*]]-7,11-Dihydroxy-8,8,10,12,16-pentamethyl-3-[1-methyl-2-(2-methyl-4-thiazolyl)ethenyl]-4-aza-17-oxabicyclo[14.0]heptadecane-5,9-dione, 4.04 g, was wetted/partially dissolved with 500 mL of a 4:1 mixture of tertiary butanol and Water for Injection USP which had been pre-cooled to 5° C. Once the drug powder had become completely wetted, dissolution was completed by the addition of […] Water for Injection, thereby making the final solution a 1:1 mixture. The dissolution was carried out under protection from light.
# The solution formed above was promptly lyophilized in a Virtis GENESIS lyophilizer at −30° C. under light protected conditions over a period of about 100 hours. The resultant lyophilized product (lyophile) was then further dried at 25° C. under high vacuum for about 35 hours. […] The lyophile was packaged under sterile conditions into 15 mL vials, each containing 20 mg of drug and standard excess to allow for vial/needle/syringe loss.
compound,measurement,setting,value
"C/C(=C\c1csc(C)n1)C1CC2O[C@]2(C)CCC[C@H](C)[C@H](O)[C@@H](C)C(=O)C(C)(C)[C@@H](O)CC(=O)N1 (relative stereo) [II, [1S-[1R*,3R*(E),7R*,10S*,11R*,12R*,16S*]]7,11-Dihydroxy-8,8,10,12,16-pentamethyl-3-[1-methyl-2-(2-methyl-4-thiazolyl)ethenyl]-4-aza-7oxabicyclo[14.1.0]heptadecane-5,9-dione]",time for 5% drug loss (t95),[1]; pH 2.5,less than 0.2 h
same,time for 5% drug loss (t95),[1]; pH 7,approximately 2 h
same,pH of maximum stability,pH of maximum stability,about 7.0
same,loss of potency (degradation of active compound),[2]; 0.9% Sodium Chloride Injection,about 3.6%
same,loss of potency (degradation in active compound),[2]; 0.9% Sodium Chloride Injection,about 6%
same,enhancement in stability,"[2]; 0.9% Sodium Chloride Injection, with vs without buffer and base",approximately 40%
same,loss of potency (degradation of active compound),[2]; 5% dextrose injection fluid,about 4%
same,loss of potency (degradation in active compound),[2]; 5% dextrose injection fluid,about 13%
same,enhancement of stability,"[2]; 5% dextrose injection fluid, with vs without buffer and base",greater than 65%
same,"degradation of the drug during dissolution, lyophilization and drying",[3],No detectable degradation
